# Test results reported in PubChem BioAssay AID743394 (Broad Institute, 2014).
# Calls of active or inactive are those of the source.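 How the source made its calls: active means 40% activation versus positive control reached by fitted dose-response curve at or below highest valid tested dose; inconclusive means poor fit quality, or flat fit with activation between 30% and 70%; inactive means the rest.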
# Test: inactive X chromosome reactivation in XiGFP fibroblasts, dose response, imaging, 68-5-11 mouse fibroblasts, GFP, cherry-pick (AID 743394);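 further: sensitizer 5-aza-dC present in the wells at 0.5 mM final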
# Conditions: 68-5-11 mouse fibroblast XiGFP reporter, % GFP-positive imaging, 3 d; at 19.5 µM (top of the series); cells co-treated with 5-aza-dC sensitizer; scaled: neutral wells 0, ellipticine wells 100
row,SMILES,activation
1,COC(C(=O)NCc1ccc(C)cc1)c1ccccc1 (configuration not stated),0.114% (inactive)
2,COc1ccc2c3c([nH]c2c1)[C@H](CO)N(C(=O)Nc1ccc(F)cc1)CC31CN(CC2CC2)C1,-0.035% (inactive)
3,CC1=Nc2ccccc2/C1=C\c1sc(Nc2ccc(C)cc2)nc1O,0.535% (inactive)
4,CCSc1nnc(NC(=O)c2cc(OC)c(OC)c(OC)c2)s1,0.316% (inactive)
5,COc1ccc2c3c(n(C)c2c1)[C@@H](CO)N(C(=O)NC(C)C)CC31CN(C(C)=O)C1,0.015% (inactive)
6,CCOc1cccc(/C=N/NC(=S)Nc2cc(S(=O)(=O)N3CCOCC3)ccc2N2CCOCC2)c1O,6.09% (inactive)
7,COC(=O)c1c(NC(=O)c2ccccc2)sc2c1CC(C)(C)NC2(C)C,0.021% (inactive)
8,CC(=O)c1c(COC(=O)c2ccccc2Cl)nc2ccccc2[n+]1[O-],0.188% (inactive)
9,COc1ccc(S(=O)(=O)N(C)C[C@H]2OCCCC[C@@H](C)Oc3ccc(NC(=O)NC(C)C)cc3C(=O)N([C@@H](C)CO)C[C@H]2C)cc1,-0.013% (inactive)
10,CNc1ccc([N+](=O)[O-])cc1C(=O)O,0.697% (inactive)
11,COc1ccccc1-c1ccc(/C=N/O)o1,-0.003% (inactive)
12,COc1ccccc1C(=O)Nc1nnc(S(=O)(=O)N2CCCCCC2)s1,0.014% (inactive)
13,COc1cc(/C=C2\SC(=S)N(N3CCOCC3)C2=O)cc(OC)c1OC,0.067% (inactive)
14,COC(=O)c1sc(-c2ccc(C(C)(C)C)cc2)cc1NC(=O)c1ccccc1C(=O)O,-0.053% (inactive)
15,COc1ccc(Nc2nc(N)c(C(=O)c3ccc(F)cc3)s2)cc1,0.551% (inactive)
16,COc1ccc(CN(C)C[C@H]2OCCCC[C@@H](C)Oc3ccc(NC(=O)Nc4ccc(F)cc4)cc3C(=O)N([C@@H](C)CO)C[C@H]2C)cc1,3.19% (inactive)
17,O=C(COC(=O)c1cc(=O)[nH]c(=O)[nH]1)Nc1cccc(S(=O)(=O)N2CCCCC2)c1,0.052% (inactive)
18,O=[N+]([O-])/C=C/c1ccc2c(ccn2Cc2ccccc2)c1,-0.06% (inactive)
19,CC(=O)Nc1ccc(N2Cc3ccccc3C2)cc1,-0.053% (inactive)
20,Cc1nn(-c2ccccc2)c(N)c1N=O,-0.053% (inactive)
21,Cc1cccc(C(=O)NCc2ccc(S(N)(=O)=O)cc2)c1[N+](=O)[O-],0.077% (inactive)

row,SMILES,activation
1,COc1ccc(N2CCN(C(=O)c3cc4c(s3)-c3ccccc3OC4)CC2)cc1,0.457% (inactive)
2,COc1ccc(-n2nc(C#N)c(Cl)cc2=O)cc1,0.745% (inactive)
3,Cc1nnc(-c2ccc(N3CCCCCC3)c([N+](=O)[O-])c2)o1,-0.007% (inactive)
4,CO[C@@H]1CN(C)C(=O)c2ccc(NC(=O)Nc3cccc(Cl)c3)cc2OC[C@H](C)N(C(=O)Nc2c(C)noc2C)C[C@H]1C,-0.002% (inactive)
5,Cn1c2ccccc2c2cnn(CC(=O)Nc3ccccc3Br)c(=O)c21,0.034% (inactive)
6,O=C(CC1C(=O)Nc2ccccc2N1CC(=O)N1CCCC1)Nc1ccc(Br)cc1 (configuration not stated),-0.001% (inactive)
7,CC(=O)c1cccc(-c2ccc3c(c2)C(C)(Cc2ccc(S(C)(=O)=O)cc2)C(=O)N3)c1 (configuration not stated),-0.032% (inactive)
8,O=C(CC1CC1)N1CC(=O)N2[C@@H](CO)[C@H](c3ccc(C#Cc4ccc(F)cc4)cc3)[C@@H]2C1,-0.031% (inactive)
9,Cc1nn(-c2ccccc2)c2ncc(C(=O)c3cc(Cl)ccc3O)cc12,0.1% (inactive)
10,COC(=O)c1cnn(-c2ccccc2)c1N,0.12% (inactive)
11,O=C1N(c2ccccc2)C[C@@H]2C[C@@H](c3cc4ccccc4o3)N3CCC[C@@]123,-0.008% (inactive)
12,O=C(CSc1nc2ccccc2[nH]1)N/N=C/C=C/c1ccccc1[N+](=O)[O-],0.165% (inactive)
13,COc1ccc2c3c([nH]c2c1)[C@@H](CO)N(Cc1cc(F)ccc1F)CC31CCN(C(C)=O)CC1,-0.023% (inactive)
14,CN(CC(=O)Nc1ccc(Cl)c(Cl)c1)CC(=O)Nc1ccc2c(c1)OCO2,-0.047% (inactive)
15,O=C(NNC(=O)c1cc2ccccc2o1)c1ccc(Cl)cc1,0.006% (inactive)
16,Nc1ccccc1Sc1ccc(C(F)(F)F)cc1[N+](=O)[O-],0.953% (inactive)
17,O=C(NNC(=O)c1ccccc1Cl)c1ccccc1Cl,-0.034% (inactive)
18,CCN1C(=O)C(=Cc2cccc(OC)c2Oc2ccc([N+](=O)[O-])cc2[N+](=O)[O-])SC1=S,-0.008% (inactive)
19,C[C@@H]1CN([C@@H](C)CO)C(=O)c2cc(NS(C)(=O)=O)ccc2O[C@@H](C)CCCCO[C@@H]1CN(C)Cc1ccccc1,0.016% (inactive)
20,COc1ccc2nc(SCC(=O)Nc3ccccc3OC)[nH]c2c1,-0.024% (inactive)
21,COc1cc(C(=O)NC(=S)Nc2cccc3nc(C)ccc23)cc(OC)c1OC,1% (inactive)

row,SMILES,activation
1,CN(C)/C=C1\C=C2C(=O)c3ccccc3N2C1=O,4.14% (inactive)
2,C[C@@H]1CN([C@@H](C)CO)S(=O)(=O)c2ccc(C#CC3CC3)cc2O[C@H]1CN(C)Cc1ccc(F)cc1,0.063% (inactive)
3,CCn1c(Cl)c(C=O)s/c1=N\S(=O)(=O)c1ccccc1,1.44% (inactive)
4,COc1ccccc1C#Cc1ccc2c(c1)O[C@H](CN(C)Cc1cncnc1)[C@@H](C)CN([C@H](C)CO)S2(=O)=O,0.045% (inactive)
5,CC(=O)OCCNc1cc(Sc2nc3ccccc3[nH]2)c2nonc2c1[N+](=O)[O-],-0.034% (inactive)
6,O=C(Nc1c(Cl)cccc1Cl)Oc1cccc2cccnc12,-0.037% (inactive)
7,O=C(N/N=C\c1c(O)ccc2ccccc12)c1ccc(S(=O)(=O)N2CCCCC2)cc1,12.4% (inactive)
8,CC1CC(C)CN(C(=O)C(C)N2CCN(S(=O)(=O)c3ccccc3F)CC2)C1 (configuration not stated),0.412% (inactive)
9,Cc1ccc(Cn2cc(/C=N/Nc3ccc([N+](=O)[O-])cn3)c3ccccc32)cc1,1.53% (inactive)
10,Cc1cccc(CS(=O)(=O)Cc2ccc(C(=O)NCc3cccs3)o2)c1,0% (inactive)
11,CC(=O)c1ccc(NC(=O)COC(=O)CCc2ccc(S(=O)(=O)N3CCOCC3)cc2)cc1,0.332% (inactive)
12,CC(=O)Nc1ccc(S(=O)(=O)N(C)c2ccc(OCC(=O)NCCc3ccccc3F)cc2)cc1,-0.07% (inactive)
13,CC(O)CN(CC(C)O)c1ccc2c(c1)Cc1cc([N+](=O)[O-])ccc1-2 (configuration not stated),11.6% (inactive)
14,CCOC(=O)c1ccccc1NC(=O)COC(=O)C1CCN(S(=O)(=O)c2ccccc2C(=O)OC)CC1,1.06% (inactive)
15,COc1ccc2c3c(n(C)c2c1)[C@H](CO)N(C(=O)CN1CCOCC1)CC31CCN(C(=O)Nc2cccc(F)c2)CC1,-0.035% (inactive)
16,CSc1ccc(CN2C(=O)NC3(CCCCCCC3)C2=O)cc1,0.616% (inactive)
17,COc1ccc(CCNC(=O)c2ccc([N+](=O)[O-])cc2)cc1,-0.024% (inactive)
18,O=C(CCC(=O)Nc1cccnc1)Nc1cccnc1,0.049% (inactive)
19,C[C@@H]1CN([C@@H](C)CO)C(=O)c2cc(NS(=O)(=O)c3cn(C)cn3)ccc2O[C@@H](C)CCCCO[C@H]1CN(C)C(=O)c1ccccc1,0.016% (inactive)
20,CCOC(=O)/C(C#N)=C/C=C1/C=CC=CN1C,0.071% (inactive)
